From US20240165074A1, “COMPOSITION OF THE PHYTOCOMPOUNDS INTENDED TO ENHANCE CYTOTOXIC ACTIVITY IN THE TREATMENT OF ACUTE LYMPHOBLASTIC LEUKEMIA” (GDANSKI UNIWERSYTET MEDYCZNY, priority 2021, published 2024)
Where two headings read alike, the source gives them in different places.

Assays:
[1] = test system: MOLT-4 (the line of human ALL leukemia); experiment: MTT viability test on MOLT-4 cells; assay type: cell-based; details: for time after which viability of MOLT-4 neoplastic cells was reduced: bioavailable dose (1×), MTT; for impact on viability of MOLT-4 cells: even at doses attainable exclusively in vitro (2×)
Description: (§1) 1. Viability Test Comprising the Use of a Test Cell Line (Cultures in the Presence of Individual Phytochemicals or their Mix) and the Control Line
(§2) The test is based on an assessment of the enzymatic activity of mitochondria using MTT, 3-(4,5-Dimethylthiazol-2-yl)-2,5-diphenyltetrazolium) bromide. Live and metabolically active cells reduce MTT to formazan crystals. In the test, a 96-well plate was seeded with […] per well in the volume of 50 μl of standard culture medium, followed by the addition of serial dilutions of the analysed compounds in the volume of 50 μl of the culture medium to obtain the final volume of 100 μl. An identical quantity of the solvent without the analysed phytocompounds was added to the control wells. The phytocompounds were stored dissolved in 100% DMSO, and therefore each dilution and the culture media added for control were supplemented with DMSO up to the non-toxic final concentration of 0.05%. The viability of the cells was assessed after a specific incubation time (24-, 48-, or 72-hours) by adding 20 μl of the yellow MTT solution to each well, and the colorimetric conversion of MTT into purple formazan crystals was assessed after 2-3 hours of incubation by dissolving the crystals with acidic isopropanol and taking a spectrophotometric measurement at the wavelength of 570 nm.
The measurements of cell viability with the application of this assay were performed on the following lines: MOLT-4 (the line of human ALL leukemia, a standard cell line used to assess the effects of pharmaceutical compounds on this type of leukemias) and BJ (human foreskin fibroblasts, primary cells grown in a short-term culture).

[2] = test system: BJ (human foreskin fibroblasts); experiment: MTT viability test on BJ control cells; assay type: cell-based; details: 0.5×, 1×, 2×; 24 and 72 hours (FIG. 2)
Description: as §1
as §2, with “nm. […]” for “nm.”

[3] = defines dose 1×; cited from earlier work

Row | Compound | time after which the biological effect (reduced MOLT-4 viability) was attained ([1]; dose 0.5×) | time after which viability of MOLT-4 neoplastic cells was reduced ([1]; single compound) | cytotoxicity to MOLT-4 cells ([1]; single compound, dose 2×) | viability of BJ cells [2] | maximum level of bioavailability of the compound in the blood [3] | impact on viability of MOLT-4 cells ([1]; single compound) | cytotoxicity to MOLT-4 cells [1]
1 | O=c1c(-c2ccc(O)cc2)coc2cc(O)cc(O)c12 [genistein] | 72 hours | 48 h | relatively highly cytotoxic | do not decrease the viability | 3 µg/mL | – | –
2 | Oc1ccc(C=Cc2cc(O)cc(O)c2)cc1 [resveratrol] | – | – | – | – | 0.5 µg/mL | did not demonstrate any impact on the viability | –
3 | O=c1c(O)c(-c2ccc(O)c(O)c2)oc2cc(O)cc(O)c12 [quercetin] | – | – | – | – | 1.5 µg/mL | did not demonstrate any impact on the viability | –
4 | COc1cc(/C=C/C(=O)CC(=O)/C=C/c2ccc(O)c(OC)c2)ccc1O [curcumin] | – | 72 h | – | – | 2.25 µg/mL | – | relatively highly cytotoxic
